Data on four compounds can be found in ChEMBL document CHEMBL4425097, “Adrenomedullin 2.0: Adjusting Key Levers for Metabolic Stability” (J Med Chem, 2016).

Active and inactive are the calls of the source. The calls are words filed in the database; no cut-off is given here. Where a SMILES comes first, the peptide text is derived from it. Bridges are numbered along the chain shown (N, C = ends).

This experiment addresses Adrenomedullin receptor AM1; CALCRL/RAMP2 (Homo sapiens) (UniProt O60895+Q16602). The experiment can be described thus: Agonist activity at eYFP-tagged CLR/eCFP-tagged RAMP2-derived AM1 receptor (unknown origin) expressed in HEK293 cells assessed as cAMP accumulation after 3 hrs by ONE-Glo substrate-based luminescence assay. The experiment is classed as functional, cell-based. For orientation: Cyclic AMP is a second messenger, typically raised through Gs and lowered through Gi signalling.
Take `CC[C@H](C)[C@H](NC(=O)[C@H](CCC(N)=O)NC(=O)[C@H](Cc1cnc[nH]1)NC(=O)[C@H](C)NC(=O)[C@H](CC(C)C)NC(=O)[C@H](CCCCN)NC(=O)[C@H](CCC(N)=O)NC(=O)[C@@H](NC(=O)[C@@H](N)[C@@H](C)O)C(C)C)C(=O)N[C@@H](Cc1ccc(O)cc1)C(=O)N[C@@H](CCC(N)=O)C(=O)N[C@@H](Cc1ccccc1)C(=O)N[C@H](C(=O)N[C@@H](CC(=O)O)C(=O)N[C@@H](CCCCN)C(=O)N[C@@H](CC(=O)O)C(=O)N[C@@H](CCCCN)C(=O)N[C@@H](CC(=O)O)C(=O)N[C@@H](CC(N)=O)C(=O)N[C@H](C(=O)N[C@@H](C)C(=O)N1CCC[C@H]1C(=O)N[C@@H](CCCNC(=N)N)C(=O)N[C@@H](CO)C(=O)N[C@@H](CCCCN)C(=O)N[C@H](C(=O)N[C@@H](CO)C(=O)N1CCC[C@H]1C(=O)N[C@@H](CCC(N)=O)C(=O)NCC(=O)N[C@@H](Cc1ccc(O)cc1)C(N)=O)[C@@H](C)CC)C(C)C)[C@@H](C)O`: the outcome was inactive. For the compound `C[C@@H](O)[C@@H]1NC(=O)CNC(=O)[C@H](Cc2ccccc2)NC(=O)[C@H](CCCNC(=N)N)NC(=O)[C@@H](NC(=O)CNC(=O)CN)CSSC[C@@H](C(=O)O)NC1=O` (H-GGCRFGTC-OH; disulfide 3-8), the result was inactive. With `CC[C@H](C)[C@H](NC(=O)[C@H](CCC(N)=O)NC(=O)[C@H](Cc1cnc[nH]1)NC(=O)[C@H](C)NC(=O)[C@H](CC(C)C)NC(=O)[C@H](CCCCN)NC(=O)[C@H](CCC(N)=O)NC(=O)[C@@H](NC(=O)[C@@H](NC(=O)[C@@H]1CSSC[C@H](NC(=O)CNC(=O)CN)C(=O)N[C@@H](CCCNC(=N)N)C(=O)N[C@@H](Cc2ccccc2)C(=O)NCC(=O)N[C@@H]([C@@H](C)O)C(=O)N1)[C@@H](C)O)C(C)C)C(=O)N[C@@H](Cc1ccc(O)cc1)C(=O)N[C@@H](CCC(N)=O)C(=O)N[C@@H](Cc1ccccc1)C(=O)N[C@H](C(=O)N[C@@H](CC(=O)O)C(=O)N[C@@H](CCCCN)C(=O)N[C@@H](CC(=O)O)C(=O)N[C@@H](CCCCN)C(=O)N[C@@H](CC(=O)O)C(=O)N[C@@H](CC(N)=O)C(=O)N[C@H](C(=O)N[C@@H](C)C(=O)N1CCC[C@H]1C(=O)N[C@@H](CCCNC(=N)N)C(=O)O)C(C)C)[C@@H](C)O` (H-GGCRFGTCTVQKLAHQIYQFTDKDKDNVAPR-OH; disulfide 3-8), the outcome was inactive.

Consider `CC[C@H](C)[C@H](NC(=O)[C@H](CCC(N)=O)NC(=O)[C@H](Cc1cnc[nH]1)NC(=O)[C@H](C)NC(=O)[C@H](CC(C)C)NC(=O)[C@H](CCCCN)NC(=O)[C@H](CCC(N)=O)NC(=O)[C@@H](NC(=O)[C@@H](NC(=O)[C@@H]1CSSC[C@H](NC(=O)CNC(=O)CN)C(=O)N[C@@H](CCCNC(=N)N)C(=O)N[C@@H](Cc2ccccc2)C(=O)NCC(=O)N[C@@H]([C@@H](C)O)C(=O)N1)[C@@H](C)O)C(C)C)C(=O)N[C@@H](Cc1ccc(O)cc1)C(=O)N[C@@H](CCC(N)=O)C(=O)N[C@@H](Cc1ccccc1)C(=O)N[C@H](C(=O)N[C@@H](CC(=O)O)C(=O)N[C@@H](CCCCN)C(=O)N[C@@H](CC(=O)O)C(=O)N[C@@H](CCCCN)C(=O)N[C@@H](CC(=O)O)C(=O)N[C@@H](CC(N)=O)C(=O)N[C@H](C(=O)N[C@@H](C)C(=O)N1CCC[C@H]1C(=O)N[C@@H](CCCNC(=N)N)C(=O)N[C@@H](CO)C(=O)O)C(C)C)[C@@H](C)O` (H-GGCRFGTCTVQKLAHQIYQFTDKDKDNVAPRS-OH; disulfide 3-8), for which the outcome was inactive.
